For data set [1] the following is noted: 298.1 K; 101.33 kPa; Liquid; Vibrating tube method.
Data set [2] in a line: refractive index (Na D-line) (dimensionless). The following applies: 293.1 K; 101.33 kPa; Liquid; Standard Abbe refractometry.

Structures are written as SMILES. Numbers after ± are expanded uncertainties.

In the case of `C1COCCO1` [1,4-dioxane], the mass density in data set [1] is reported as 1025.9 ± 0.1 kg/m3. The refractive index in data set [2] came to 1.422 ± 0.0007.
In the same order, the values of `C=CC(C)CCC=C(C)C` (centres undefined) [3,7-dimethyl-1,6-octadiene] are 766.8 ± 0.2 kg/m3 and 1.4416 ± 0.0007.

What is called mass density is mass per unit of volume. In general, refractive index refers to a measure of how strongly the sample bends light.
